# Residues, ends and D or L forms follow the SMILES beside them.
# Assays:
# [1] = test system: experimental hemorrhagic pancreonecrosis; assay: Enzymatic activity in blood serum in experimental hemorrhagic pancreonecrosis (acute pancreatitis model); format: in vivo, dogs
# Procedure: (§1) The biological activity of the hexapeptide according to the present invention has been studied in experiments on dogs using an experimental acute pancreatitis model.
# (§2) To this end, a similar operation was performed on 10 dogs. Under hexenal narcosis upper-median laparotomy was made. Into the wound a loop of duodenum was introduced with pancreas, cannulated and Wirsung's duct was dressed on a drain Snatorini's duct was additionally dressed too. Then the gall-bladder was punctured, bile was extracted therefrom and injected under pressure into Wirsung's duct at the rate of 0.5 ml per kg of the animal's bodyweight. As a stimulant of the pancreas secretion secretin and cholecystopancreoziimin were used which were intravenously administered at the rate of two units per kg of a dog's bodyweight. For administration of the stimulants of the pancreatic secretion, the hexapeptide according to the present invention and obtaining blood, the femoral vein was catheterized. For the measurement of diuresis and urine examination epicystostomy was effected or both ureters were catheterized. All the experiments were carried out on an empty stomach of the animals.
# Prior to introduction of bile into Wirsung's duct, background samples of blood, urina and pancreatic juice were taken for special enzymological investigations. After administration of bile into Wirsung's duct the same biological tests were carried out every hour until the experiment was completed. The activity of the following pancreatic enzymes was studied: α-amylase, lipase, total esterase activity, antitryptic activity.
# (§3) 30 minutes after the administration of bile into Wirsung's duct and then every 2 hours small pieces of pancreas tissue were taken from the animals from various sections for morphological investigations. In the second series of experiments 5 dogs were used. A hemorrhagic pancreonecrosis was induced in them and 2 hours after the development of acute pancreatitis an intravenous administration of the hexapeptide according to the present invention was started at the rate of 0.3 mg per kg of the animal's bodyweight. For enzymological and morphological studies the same biological samples and pieces of tissues of the pancreas were taken. The dogs were slaughtered 6-8 hours after the beginning of the experiment.
# (§4) In the third series of experiments two dogs were used. The induced experimental pancreatitis was treated by means of the hexapeptide according to the present invention. The same tests were performed, but the dogs were not slaughtered. 24 hours from the beginning of the experiment and then 7 days and 15 days thereafter they were subjected to relaparotomy, the macroscopic view of pancreas was studied, pieces of the tissue of pancreas were taken for morphological studies.
# (§5) The effect of the hexapeptide according to the present invention was compared with that of widely employed preparations--5-fluorouracyl an d tracilol--on the same model of acute pancreatitis.
# [2] = test system: experimental hemorrhagic pancreonecrosis; assay: Morphological studies of the pancreas in experimental hemorrhagic pancreonecrosis; format: in vivo, dogs; conditions: for Morphology of pancreas, early stages of treatment: tracilol 10,000 units per hour, hexapeptide 0.3 mg/kg
# Procedure: as §1, §2
# Three dogs were used in the control group of the experiments. They were treated to induce an experimental pancreatitis only without administration of the hexapeptide according to the present invention; an acute experiment lasted for 6-8 hours, whereafter the dogs were slaughtered by intracardiac administration of hexenal.
# as §3, §4, §5
# Acute toxicity (LD50) = conditions: for LD50: acute toxicity, dose causing death of 50% of the animals; for LD50 surpasses the therapeutic dose by: therapeutic dose: 5-fluorouracyl 5 mg/kg, hexapeptide 0.3 mg/kg
# [3] = Effect on cell formula of the blood and immune system; conditions: in vivo
# Solubility of the powder = format: physicochemical
# Procedure: The hexapeptide according to the present invention comprises a white powder, well soluble in distilled water, a physiological solution, ethanol; insoluble in ether, ethylacetate, benzene. The melting temperature is 173°-176° C. [α]D^22 =-19.1 (c 0.33 H2 O).
# [4] = dogs, developed pancreonecrosis, hexapeptide 0.3 mg/kg
structure (smiles),measurement,setting,value
"O=c1[nH]cc(F)c(=O)[nH]1 [5-fluorouracyl, reference compound]",Total esterase activity in blood serum,"[1]; dogs (3), 5-fluorouracyl 5 mg/kg i.v., after 4 hours, value for developed pancreonecrosis 0.58 ± 0.07",0.56 ± 0.02 μM/ml
same,Activity of lipase in blood serum,"[1]; dogs (3), 5-fluorouracyl 5 mg/kg i.v., after 4 hours, value for developed pancreonecrosis 0.62 ± 0.12",0.48 ± 0.02 units
same,Antitryptic activity in blood serum,"[1]; dogs (3), 5-fluorouracyl 5 mg/kg i.v., after 4 hours, value for developed pancreonecrosis 22.2 ± 1.4",20.1 ± 1.2 IU
same,Activity of alpha-amylase in blood serum,"[1]; dogs (3), 5-fluorouracyl 5 mg/kg i.v., after 4 hours, value for developed pancreonecrosis 158.0 ± 18.2",152.2 ± 24.1 mg/h · ml
same,Total esterase activity in blood serum,"[1]; dogs (3), 5-fluorouracyl 5 mg/kg i.v., after 6 hours, value for developed pancreonecrosis 0.58 ± 0.07",0.58 ± 0.04 μM/ml
same,Activity of lipase in blood serum,"[1]; dogs (3), 5-fluorouracyl 5 mg/kg i.v., after 6 hours, value for developed pancreonecrosis 0.62 ± 0.12",0.54 ± 0.08 units
same,Antitryptic activity in blood serum,"[1]; dogs (3), 5-fluorouracyl 5 mg/kg i.v., after 6 hours, value for developed pancreonecrosis 22.2 ± 1.4",20.1 ± 1.2 IU
same,Activity of alpha-amylase in blood serum,"[1]; dogs (3), 5-fluorouracyl 5 mg/kg i.v., after 6 hours, value for developed pancreonecrosis 158.0 ± 18.2",153.3 ± 17.1 mg/h · ml
same,"Characteristics of activity of enzymes in blood serum (lipase, esterase, antitryptic), in words","[1]; dogs, developed pancreonecrosis, 5-fluorouracyl 5 mg/kg, tracilol 10,000 units/hour",remain substanctially unchanged
same,Morphology of pancreas 7 days after the beginning of the treatment,"[2]; dogs, 5-fluorouracyl 5 mg/kg",pronounced fibrosis of the pancreas with breaking of lobules into fragments
same,Regeneration of the pancreas,"[2]; dogs, 5-fluorouracyl 5 mg/kg, later stages of treatment",incomplete
same,"Morphology of pancreas, early stages of treatment","[2]; dogs, 5-fluorouracyl 5 mg/kg",noticeable inflammatory infiltration of necrotic zones and of the interstice is retained
same,LD50,Acute toxicity (LD50),750 mg/kg
same,LD50 surpasses the therapeutic dose by,Acute toxicity (LD50),150 times
CC(C)C[C@H](NC(=O)[C@H](Cc1ccccc1)NC(=O)CNC(=O)[C@H](C)NC(=O)[C@@H](N)Cc1ccc(O)cc1)C(=O)N[C@@H](CCCNC(=N)N)C(=O)O [Tyrosyl-alanyl-glycyl-phenylalanyl-leucyl-arginine] (H-YAGFLR-OH),Total esterase activity in blood serum,"[1]; dogs (7), hexapeptide 0.3 mg/kg i.v., after 4 hours, value for developed pancreonecrosis 0.76 ± 0.05",0.16 ± 0.08 μM/ml
same,Activity of lipase in blood serum,"[1]; dogs (7), hexapeptide 0.3 mg/kg i.v., after 4 hours, value for developed pancreonecrosis 1.15 ± 0.03",0.25 ± 0.02 units
same,Antitryptic activity in blood serum,"[1]; dogs (7), hexapeptide 0.3 mg/kg i.v., after 4 hours, value for developed pancreonecrosis 26.5 ± 1.3",78.0 ± 13.1 IU
same,Activity of alpha-amylase in blood serum,"[1]; dogs (7), hexapeptide 0.3 mg/kg i.v., after 4 hours, value for developed pancreonecrosis 178 ± 28.2",246.2 ± 26.7 mg/n · ml
same,Total esterase activity in blood serum,"[1]; dogs (7), hexapeptide 0.3 mg/kg i.v., after 6 hours, value for developed pancreonecrosis 0.76 ± 0.05",0.20 ± 0.09 μM/ml
same,Activity of lipase in blood serum,"[1]; dogs (7), hexapeptide 0.3 mg/kg i.v., after 6 hours, value for developed pancreonecrosis 1.15 ± 0.03",0.40 ± 0.05 units
same,Antitryptic activity in blood serum,"[1]; dogs (7), hexapeptide 0.3 mg/kg i.v., after 6 hours, value for developed pancreonecrosis 26.5 ± 1.3",72.0 ± 2.5 IU
same,Activity of alpha-amylase in blood serum,"[1]; dogs (7), hexapeptide 0.3 mg/kg i.v., after 6 hours, value for developed pancreonecrosis 178 ± 28.2",258.2 ± 33.2 mg/n · ml
same,Activity of lipase in blood serum (in words),[1]; [4],sharply reduced
same,Increase of the antitryptic activity (in words),[1]; [4],three-time increase
same,Total esterase activity of blood (in words),[1]; [4],lowered
same,Synthesis of pancreatic enzymes in acute pancreatitis,"[1]; dogs, hexapeptide",effectively inhibits
same,Morphology of hemorrhagic pancreonecrosis one day after the treatment,"[2]; dogs, hexapeptide i.v.",positive dynamics
same,Regeneration of the acinar tissue,"[2]; dogs, hexapeptide, 14 days after the beginning of the treatment",complete regeneration of the acinar tissue
same,"Morphology of pancreas, early stages of treatment","[2]; dogs, 5-fluorouracyl 5 mg/kg",absence of signs of hemorrhagic zones of necrosis and hemorrhages into the interstice
same,Antipancreonecrotic activity,[2]; overall conclusion,exhibits an antipancreonecrotic activity
same,Cell formula of the blood,[3],does not change the cell formula of the blood
same,Pathological responses on the part of the immune system,[3],does not cause pathological responses
same,Processes of homeopoiesis,[3],does not inhibit the processes of homeopoiesis
same,Solubility,Solubility of the powder; benzene,insoluble
same,Solubility,Solubility of the powder; distilled water,well soluble
same,Solubility,Solubility of the powder; ethanol,well soluble
same,Solubility,Solubility of the powder; ether,insoluble
same,Solubility,Solubility of the powder; ethylacetate,insoluble
same,Solubility,Solubility of the powder; physiological solution,well soluble
same,LD50,Acute toxicity (LD50),150 mg/kg
same,LD50 surpasses the therapeutic dose by,Acute toxicity (LD50),500 times

# Reference: patent US4695622A, “Hexapeptide” (Vsesojuzny Kardiologichesky Nauchny Tsentr Akademii …, priority 1984, dated 1987)
